Results on 6 compounds are retold here after patent publication US8492515B2 (priority 2008, dated 2013).

“Also recorded” adds a separate entry of the source. Bridge positions count the residues as written; N and C are the ends. Square brackets hold non-standard residues; d marks the D form. Ends that are not written are not given here. Peptide text beside a SMILES is read from it. I, II: the chains in the order shown. Ac6c = NC1(C(=O)O)CCCCC1; Dab = NCC[C@H](N)C(=O)O; Dap = NC[C@H](N)C(=O)O

One data set has as its system K. pneumoniae HK123. The following applies: HK123, 16 h. From the text:
(§1) To investigate the activity of the A3-APO metabolites, Chex1-Arg20 single chain unit and an Arg7-Arg20 common cleavage fragment were synthesized and studied for their ability to kill Enterobacteriaceae strains in undiluted Muller-Hinton broth, a true measure of potential clinical viability (Otvos et al., 2005. J. Med. Chem. 48: 5349-5359). The peptides of the invention were made on a CEM Liberty automated synthesizer with standard Fmoc-chemistry. The peptides were detached from the resin with the carboxyl terminus of the C-terminal Arg residue being in the form of an amino amide, —C(O)—NH2 (“Chex1-Arg20-NH2” and “Arg7-Arg20-NH2”), while still in the microwave chamber, and were purified by RP-HPLC. […] The biological studies carried out on chemically synthesized peptides in this example and succeeding examples were carried out on the C-terminal modified versions of the peptides wherein the C-terminal carboxylic acid function was in the form of an amide, —C(O)—NH2. Antibacterial growth inhibition assays were performed using sterile 96-well polypropylene plates (Nunc F96 microtiter plates) in a final volume of 100 μL as described previously (Cudic et al., 2002. Peptides 23: 271-283). The cell concentrations were estimated by measuring the ultraviolet absorbance at 600 nm and applying the formula cfu/mL=A600(3.8×10^8), where cfu is the number of colony-forming units. Briefly, 50 μL of a suspension of midlogarithmic phase bacterial cultures diluted to 5×10^5 cfu/mL in Muller-Hinton broth (MHB) was added to 50 μL of serially diluted peptides also dissolved in MHB. The final peptide concentration was 128 μg/mL. Cultures were then incubated at 37° C., 5% CO2 for 16-20 h without shaking, and growth inhibition was measured by recording the absorbance at 600 nm using a microplate reader. […] The minimal inhibitory concentration indicates the lowest peptide dose where no visible bacterial growth is detected after 16 hours incubation in full strength Muller-Hinton broth at 37° C. The peptide Chex-pyrr-Dap dimer was also included in the study. […] (Cudic et al., 2002. Peptides 23: 271-283).

The next data set relates to S. typhimurium G10215. Conditions: G10215, 16 h.
Source text: as §1

A further data set deals with E. coli SEQ102. The following applies: SEQ102, 16 h.
Source text: as §1

The next data set deals with E. coli HK179. Conditions: HK179, 16 h.
Source text: as §1

In data set [1] the test system is Enterobacteriaceae strains.
Source text: as §1

Data set [2] has as its system extended-spectrum β-lactamase producing E. coli strain (designation 5770). Briefly: Systemic infection model, cisplatin-pretreated CD-1 mice, blood bacterial counts. The data set is classed as in vivo. The following applies: 40 mg/kg ip. On the procedure:
As peptide drugs, such as antimicrobial peptides, are predominantly cleared through the kidneys (Klootwijk et al., 1997. J. Clin. Endocrinol. Metab. 82: 3068-3073) and the kidney functions of mice are 20-fold faster than those of humans, CD-1 female mice of 15-20 g were pretreated with 18 mg/kg cisplatin for 3 days to impair kidney clearance similar to the levels observed in humans (Mathe et al., 2006. Lab. Anim. 40: 296-300) before they were challenged intraperitoneally (ip) with 10^8 CFU per g mouse of an extended-spectrum β-lactamase producing E. coli strain (designation 5770). Four, 8 and 12 hours after challenge 10 or 20 mg/kg peptide Chex1-Arg20 or 40 mg/kg imipenem (as a positive control) were administered ip to 10 mice in each group. Imipenem is a broad spectrum β-lactam antibiotic. Prior to drug administration at all three timepoints, blood was taken from the tail vein of 3-5 mice for determining blood bacterial counts. […] Antimicrobials were administered ip 4 hours after challenge 3 times in 4 hour intervals. Blood was taken immediately before antimicrobial treatments. Numbers in parentheses indicate the number of mice with <10^3 CFU/mL. Bacterial counts were determined 10 times from different dilution of blood from 5 mice in each group in each timepoints.

Data set [3] has as its system Escherichia coli 5770. Briefly: Mouse survival after last dose, systemic infection model without cisplatin pretreatment. The following applies: 40 mg/kg. In kind it is in vivo. On the procedure:
The survival rate and the dynamics of survival of mice after the last dose of an antibacterial peptide treatment (12 hours post-infection) were measured in a mouse model of Escherichia coli 5770 systemic infection. In this particular study, the animals were not pretreated with cisplatin. Ten animals were used in each group. […] In the control (infected, non-treated) and the imipenem treated rows, the first numbers reflect the number of surviving animals on the day of assay measuring the efficacy of the Chex1-Arg20 and the second numbers are the surviving control animals on the day of the A3-APO efficacy assay.

A short description of data set [4]: blood taken from the eye of CD-1 mice injected intravenously with A3-APO. Conditions: up to 240 minutes.
The nature of data set [5]: approximately 100 μL retrieved blood (female CD-1 mice retroorbitally bled), ex vivo. Conditions: 37° C., up to 30 min.
Data set [6] relates to Escherichia coli 5770. Briefly: Blood bacterial counts before and after intraperitoneal dosing of infected CD-1 mice (FIGS. 4A, 4B). The data set is classed as in vivo. Conditions: compared with imipenem in the respective assay. An excerpt:
FIGS. 4A and 4B illustrate blood bacterial counts before and after intraperitoneal drug dosing to Escherichia coli 5770 infected CD-1 mice. In FIG. 4A the symbols represent bacterial counts observed for infected and non-treated mice, A3-APO treated mice and imipenem treated mice. In FIG. 4B the symbols represent bacterial counts observed for infected and non-treated mice, Chex1-Arg20-NH2 treated mice and imipenem treated mice. Identical shapes if FIGS. 4A and 4B represent identical timepoints, respectively.
Both A3-APO and Chex1-Arg20 are active in lethal systemic infections. Efficacy is shown in both the increase of survival time and the reduction of blood bacterial counts. FIGS. 4A and 4B show blood bacterial counts before and after intraperitoneal drug dosing to Escherichia coli 5770 infected CD-1 mice. In FIG. 4A the symbols represent bacterial counts observed for infected and non-treated mice, A3-APO treated mice and imipenem treated mice. In FIG. 4B the symbols represent bacterial counts observed for infected and non-treated mice, Chex1-Arg20-NH2 treated mice and imipenem treated mice. Identical shapes if FIGS. 4A and 4B represent identical timepoints, respectively.

Data set [7] is described as follows: ex vivo blood, protocol of 'Stability of Peptide A3-APO in Whole Blood'. The following applies: CD-1 mice, 37° C., up to 120 min.
In another data set the test system is E. coli D31. The following applies: full strength Muller-Hinton broth, 16 hours, 37° C.
Source text: as §1

Turning to `CC[C@H](C)[C@H](NC(=O)[C@@H]1CCCN1C(=O)[C@H](CCCNC(=N)N)NC(=O)[C@@H]1CCCN1C(=O)[C@@H]1CCCN1C(=O)[C@@H](NC(=O)[C@@H]1CCCN1C(=O)[C@H](CCCNC(=N)N)NC(=O)[C@@H]1CCCN1C(=O)[C@H](CC(C)C)NC(=O)[C@H](Cc1ccc(O)cc1)NC(=O)[C@H](CO)NC(=O)CNC(=O)[C@H](CCCCN)NC(=O)[C@H](CC(=O)O)NC(=O)C1(N)CCCCC1)[C@@H](C)O)C(=O)N[C@@H](Cc1ccc(O)cc1)C(=O)N[C@@H](CC(N)=O)C(=O)N[C@@H](CCCNC(=N)N)C(=O)NC[C@H](NC(=O)[C@H](CCCNC(=N)N)NC(=O)[C@H](CC(N)=O)NC(=O)[C@H](Cc1ccc(O)cc1)NC(=O)[C@@H](NC(=O)[C@@H]1CCCN1C(=O)[C@H](CCCNC(=N)N)NC(=O)[C@@H]1CCCN1C(=O)[C@@H]1CCCN1C(=O)[C@@H](NC(=O)[C@@H]1CCCN1C(=O)[C@H](CCCNC(=N)N)NC(=O)[C@@H]1CCCN1C(=O)[C@H](CC(C)C)NC(=O)[C@H](Cc1ccc(O)cc1)NC(=O)[C@H](CO)NC(=O)CNC(=O)[C@H](CCCCN)NC(=O)[C@H](CC(=O)O)NC(=O)C1(N)CCCCC1)[C@@H](C)O)[C@@H](C)CC)C(=O)N[C@@H](CNC(C)=O)C(N)=O` [Chex-pyrr-Dap dimer] (I: H-[Ac6c]DKGSYLPRPTPPRPIYNR[Dap][Dap](Ac)-NH2 / II: H-[Ac6c]DKGSYLPRPTPPRPIYNR; amide I:20-II:C; N-terminus assumed), in the data set on K. pneumoniae HK123, the “MIC against K. pneumoniae HK123” value is more than 64 µg/mL. Also, the “MIC against S. typhimurium G10215” value against S. typhimurium G10215 is more than 64 µg/mL. In addition, the “MIC against E. coli SEQ102” value in the data set with E. coli SEQ102 is more than 64 µg/mL. The “MIC against E. coli HK179” value with E. coli HK179 was more than 64 µg/mL. In addition, the “activity in full-strength Muller-Hinton broth” value in data set [1] (negative control) is “without significant activity”.
In the case of `C[C@@H](O)[C@H]1C(=O)N2C(C(=O)O)=C(SCCN=CN)C[C@H]12` [Imipenem, reference compound], the “Bacterial counts in blood after inoculation/challenge” value is 3.2 × 10^5 CFU/mL in data set [2] (4 h (blood taken before first dose)), 3.7 × 10^3 CFU/mL in data set [2] (8 h) and < 1.2 × 10^3 CFU/mL in data set [2] (12 h). Also, the “number of surviving mice (10 animals each)” value is on record as 9 with Escherichia coli 5770 [3] (0 h after last dose, day of the A3-APO assay); 10 with Escherichia coli 5770 [3] (0 h after last dose, day of the Chex1-Arg20 assay); 9 in the data set on Escherichia coli 5770 [3] (3 h after last dose, day of the A3-APO assay); 10 with Escherichia coli 5770 [3] (3 h after last dose, day of the Chex1-Arg20 assay); 9 in the data set with Escherichia coli 5770 [3] (6 h after last dose, day of the A3-APO assay); 10 with Escherichia coli 5770 [3] (6 h after last dose, day of the Chex1-Arg20 assay). Also, the “number of surviving mice (10 animals each)” value is 9 in the data set on Escherichia coli 5770 [3] (9 h after last dose, day of the A3-APO assay); 10 in the data set on Escherichia coli 5770 [3] (9 h after last dose, day of the Chex1-Arg20 assay); 9 in the data set on Escherichia coli 5770 [3] (12 h after last dose, day of the A3-APO assay); 10 in the data set on Escherichia coli 5770 [3] (12 h after last dose, day of the Chex1-Arg20 assay).
On to “(SEQ ID NO: 2)2-Dab (I: [Ac6c]RPDKPRPYLPRPRPPRPVR[Dab] / II: [Ac6c]RPDKPRPYLPRPRPPRPVR; amide I:21-II:C (inferred))”, for which the fragment found entry is reported as “Chex1-Arg20; Chex-Arg-Pro-Asp-Lys-Pro-Arg-Pro-Tyr-Leu-Pro-Arg-Pro-Arg-Pro-Pro-Arg-Pro-Val-Arg (SEQ ID NO: 2), major, 5 minutes” in data set [4] and “Chex1-Val19; Chex-Arg-Pro-Asp-Lys-Pro-Arg-Pro-Tyr-Leu-Pro-Arg-Pro-Arg-Pro-Pro-Arg-Pro-Val (SEQ ID NO: 4), 30 min; also recorded: Chex1-Dab21; Chex-Arg-Pro-Asp-Lys-Pro-Arg-Pro-Tyr-Leu-Pro-Arg-Pro-Arg-Pro-Pro-Arg-Pro-Val-Arg-Dab (SEQ ID NO: 7), 30 min” in [5].
Turning to “Chex-Arg-Pro-Asp-Lys-Pro-Arg-Pro-Tyr-Leu-Pro-Arg-Pro-Arg--Pro-Pro-Arg-Pro-Val-Arg-NH2 ([Ac6c]RPDKPRPYLPRPRPPRPVR-NH2) [Chex1-Arg20-NH2]”, in the data set with Escherichia coli 5770 [6], the “reduction of blood bacterial counts” value was “reduced the bacterial counts to levels identical to those observed after imipenem treatment”.
For the compound “Chex-Arg-Pro-Asp-Lys-Pro-Arg-Pro-Tyr-Leu-Pro-Arg-Pro-Arg-Pro-Pro-Arg-Pro-Val-Arg”, the cleaved bond result in [7] is “Val19-Arg20”.
Take “RPYLPRPRPPRPVR-NH2 [Arg7-Arg20, Arg-Pro-Tyr-Leu-Pro-Arg-Pro-Arg-Pro-Pro-Arg-Pro-Val-Arg]”: in the data set on K. pneumoniae HK123, the “MIC against K. pneumoniae HK123” value was more than 64 µg/mL. In addition, the “MIC against S. typhimurium G10215” value against S. typhimurium G10215 was more than 64 µg/mL. In addition, in the data set on E. coli SEQ102, the “MIC against E. coli SEQ102” value was more than 64 µg/mL. Further, the “MIC against E. coli HK179” value in the data set with E. coli HK179 was more than 64 µg/mL. Besides, the “MIC values against the test strain” value in data set [1] is more than 64 µg/mL. The “MIC against E. coli D31” value in the data set with E. coli D31 is more than 64 µg/mL.
